The subject of the assay is SdPT. Kind of assay: HPLC prenylation assay, yeast microsomes. It is filed as biochemical, Saposhnikovia divaricata. Particulars: saturating DMAPP and MgCl2; optimum pH 10.0, 45 °C.

Usually Km stands for the concentration of substrate that gives half-maximal velocity. On to `Cc1cc(=O)c2c(O)cc(O)cc2o1` [compound 2, noreugenin], for which the Km was 29.1 µM.

Source of the values: article PMC11961743 (Nature Communications, 2025).
